Where two headings read alike, the source gives them in different places.
Legend:
RXF 1183 = assay: 3D clonogenic assay (PDX); format: cell-based; conditions: Homo sapiens, RXF 1183, Renal
Description: (§1) The anti-tumor efficacy of S1 in the patient-derived tumor xenograft (PDX) tumor panel was assessed, where the efficacy of S1 in PDX tumor panel in the 96-well format, in 10 concentrations in duplicate was performed. Colony formation of tumor cell suspensions in a soft-agar matrix was observed and quantified. The output is IC50 values and dose response-relationships based on number of colonies in control and treatment wells, as identified by an automated image analysis algorithm. Stock solution of S1 was prepared in 100% DMSO at 10 mM concentration (stored at -20°C) and reused for each experiment. Compound final test concentrations: Dilution series ½ i.e.: 50µM, 15, 5, 1.5, 0.5, 0.15, 0.05, 0.015, 0.005 and 0.0015.
(§2) Tumor xenografts (also referred to as patient-derived tumor xenografts) were passaged as subcutaneous xenografts in NMRI nu/nu mice. Tumor xenograft were removed from mice under sterile conditions, mechanically disaggregated and subsequently incubated with an enzyme cocktail consisting of collagenase type IV (41 U/mL), DNase I (125 U/mL), hyaluronidase type III (100 U/mL) and dispase II (1.0 U/mL) in RPMI 1640 medium at 37°C for 60 - 120 minutes. Cells were passed through sieves of 100 µm and 40 µm mesh size and washed with RPMI 1640 medium. The percentage of viable cells was determined in a Neubauer-hemocytometer using trypan blue exclusion. Aliquots of the cells were frozen down, and stored in liquid nitrogen.
(§3) The clonogenic assay test was carried out in 96 well plate format. For each test a frozen aliquot of tumor cells prepared from tumor xenografts was thawed and assay plates were prepared as follows: each test well contained 3 layers of equal volume, 2 layers of semi-solid medium (bottom and top layer), and one layer of medium supernatant, with or without test compound. The bottom layer consisted of 0.05 mL/well Iscove's Modified Dulbecco's Medium (Invitrogen), supplemented with 20% (v/v) fetal calf serum (Sigma), 0.01% (w/v) gentamicin (Invitrogen) and 0.75% (w/v) agar (BD Biosciences). Tumor cells were added to 0.05 mL of the same culture medium supplemented with 0.4% (w/v) agar and plated onto the bottom layer. After 24 h, test compounds were added after serial dilution in DMSO and transfer in cell culture medium, and left on the cells for the duration of the experiment (continuous exposure, 0.05 mL drug overlay). Every dish included six untreated control wells and drug-treated groups in duplicate at 10 concentrations. Cultures were incubated at 37 °C and 7.5% CO2 in a humidified atmosphere for 8 to 13 days and monitored closely for colony growth using an inverted microscope. Within this period, ex vivo tumor growth lead to the formation of colonies with a diameter of >50 µm. […]

MAXF 574 = assay: 3D clonogenic assay (PDX); format: cell-based; conditions: Homo sapiens, MAXF 574, Breast
Description: as §1, §2, §3

BXF 1258 = assay: 3D clonogenic assay (PDX); format: cell-based, human; conditions: BXF 1258, Bladder; for IC50: Homo sapiens
Description: as §1, §2
(§4) The clonogenic assay test was carried out in 96 well plate format. For each test a frozen aliquot of tumor cells prepared from tumor xenografts was thawed and assay plates were prepared as follows: each test well contained 3 layers of equal volume, 2 layers of semi-solid medium (bottom and top layer), and one layer of medium supernatant, with or without test compound. The bottom layer consisted of 0.05 mL/well Iscove's Modified Dulbecco's Medium (Invitrogen), supplemented with 20% (v/v) fetal calf serum (Sigma), 0.01% (w/v) gentamicin (Invitrogen) and 0.75% (w/v) agar (BD Biosciences). Tumor cells were added to 0.05 mL of the same culture medium supplemented with 0.4% (w/v) agar and plated onto the bottom layer. After 24 h, test compounds were added after serial dilution in DMSO and transfer in cell culture medium, and left on the cells for the duration of the experiment (continuous exposure, 0.05 mL drug overlay). Every dish included six untreated control wells and drug-treated groups in duplicate at 10 concentrations. Cultures were incubated at 37 °C and 7.5% CO2 in a humidified atmosphere for 8 to 13 days and monitored closely for colony growth using an inverted microscope. Within this period, ex vivo tumor growth lead to the formation of colonies with a diameter of >50 µm. At the time of maximum colony formation, counts were performed with an automatic image analysis system. 24 h prior to evaluation, vital colonies were stained with a sterile aqueous solution of 2-(4-iodophenyl)-3-(4-nitrophenyl)-5-phenyltetrazolium chloride (1 mg/mL, 100 µL/well). Sigmoidal concentration-response curves were fitted to the data points obtained for each tumor model using 4 parameter non-linear curve fit (Oncotest Warehouse Software). IC50 values are reported as relative IC50 values, being the concentration of test compound that give a response (inhibition of colony formation/viability) half way between the top and bottom plateau of the sigmoidal concentration-response curve (inflection point of the curve), or as absolute IC50 values, being the concentration of test compound at the intersection of the concentration-response curves with T/C = 50%. For calculation of mean IC50 values the geometric mean was used. Results are presented as mean graph plots or heat maps (individual IC50 values relative to the geometric mean IC50 value) over all cell lines as tested.

PRXF MRI-H-1579 = assay: 3D clonogenic assay (PDX); format: cell-based, human; conditions: PRXF MRI-H-1579, Prostate; for IC50: Homo sapiens
Description: as §1, §2, §4

HPAF II cells = assay: ATP viability assay (CellTiter-Glo), 3D culture, automatic drug screen; format: cell-based, human; conditions: 72 h, 30-10 µM
Source text: (§5) The following well-characterized human pancreatic ductal adenocarcinoma cell lines (ATCC) were used: HPAF II, BxPC-3, MIA-PaCa2 and Panc-1. These cell lines were generated from patient-derived tumors and are widely used model system to study pancreatic cancer (HPAF II: Kim YW, et al. Pancreas 4: 353-362, 1989; BxPC-3: Tan MH, et al. Cancer Invest. 4: 15-23, 1986; MIA-PaCa2: Yunis AA, et al. Int. J. Cancer 19: 128-135, 1977; Pacn-1: Lieber M, et al. Int. J. Cancer 15: 741-747, 1975).
(§6) Panc-1, HPAF II, KPC pancreatic adenocarcinoma cell lines were trypsin-treated and counted using the Casy Cell Counter according to the manufacturer's recommendations (GmbH). Subsequently, they were seeded onto round bottom non-tissue culture treated 96 well-plates (Falcon, BD NJ, USA) at a concentration of 2500 cells/well in 100 µl DMEM-F12 or phenol red-free DMEM-F12 medium, containing 10% FCS and supplemented with 20% methyl cellulose stock solution. For preparation of methylcellulose stock solution, 6 grams of methylcellulose powder (M0512, Sigma-Aldrich) was autoclaved in a 500 ml flask containing a magnetic stirrer (the methylcellulose powder is resistant to this procedure). The autoclaved methylcellulose was dissolved in preheated 250 ml basal medium (60°C) for 20 min (using the magnetic stirrer). Thereafter, 250 ml medium (room temperature) containing double amount of FCS (20%) was added to a final volume of 500 ml and the whole solution mixed overnight at 4°C. The final stock solution was aliquoted and cleared by centrifugation (5000g, 2 h, room temperature). Only the clear highly viscous supernatant was used for the spheroid assay (about 90-95% of the stock solution). […]
(§7) In order to confirm the results presented in figure 1, S1 was further tested in 2 different cell lines in 3D culture format, using an automatic drug screening assay. The effect of Vacquinol-1 RS (S1) on cell viability was measured after 72h using the CellTiter-Glo assay (Promega) adapted for 3D culture.

Panc-1 cells = assay: as above; format: cell-based, human; conditions: Panc-1, 3D culture, 72 h
Source text: as §5, §6, §7

IC50 (RXF 1183; read-out: abs. IC50): 50 µM | IC50 (RXF 1183; read-out: rel. IC50): 50 µM | IC50 (MAXF 574; read-out: abs. IC50): 50 µM | IC50 (MAXF 574; read-out: rel. IC50): 50 µM | IC50 (BXF 1258; read-out: abs. IC50): 7.47 µM | IC50 (BXF 1258; read-out: rel. IC50): 2.54 µM | IC50 (PRXF MRI-H-1579; read-out: abs. IC50): 8.94 µM | IC50 (PRXF MRI-H-1579; read-out: rel. IC50): 8.76 µM
SMILES: O[C@H](c1cc(-c2ccc(Cl)cc2)nc2ccccc12)[C@@H]1CCCCN1 [S1, (R)-(2-(4-chlorophenyl)quinolin-4-yl)((S)-piperidin-2-yl)methanol]
b (bottom plateau of concentration-effect curve) (BXF 1258): 44 | t (top plateau of concentration-effect curve) (BXF 1258): 103 | b (bottom plateau of concentration-effect curve) (PRXF MRI-H-1579): 21 | t (top plateau of concentration-effect curve) (PRXF MRI-H-1579): 112 | viability compared to control (HPAF II cells): marked decrease in viability | decrease in viability (Panc-1 cells; 20-10 µM): ~20% | viability compared to control (Panc-1 cells; 30 and 25 µM): marked decrease in viability

Source: patent publication EP3064205A1, “Therapeutic use of isomeric forms of 2-(4-chlorophenyl)quinolin-4-yl)(piperidin-2-yl)methanol” (Glionova AB, priority 2015, dated 2016)
